Assay results reported in US5185347A, “Piperidine compounds and antiulcer composition containing the same” (Meiji Seika Kaisha Ltd., priority 1990, dated 1993).

Experiments:
[1] = test system: Water Immersion Restraint Stress-Induced Ulcer; assay: Test on Water Immersion Restraint Stress-Induced Ulcer; format: in vivo, Wister male rat; conditions: 30 mg/5 ml/kg-b.w. in 0.5% CMC, 1 hour before stress, water immersion restraint 6 hours, 20 to 22° C., ulcer index = sum of longer diameters (mm); for inhibition in vivo at 30 mg/kg: Rattus norvegicus, read-out: Percent Inhibition on Ulceration
Description: 1) Test on Water Immersion Restraint Stress-Induced Ulcer:
A 11-week-old Wister male rat having been deprived of food for 18 hours was restrained in a cage and immersed chest-deep in water at 20 to 22° C. for 6 hours to impose a stress. The rat taken out of water was sacrificed by cervical dislocation, the stomach removed, 5 ml of a 5% formalin aqueous solution poured into the stomach, and the whole stomach was soaked in the same solution for 30 minutes. The thus fixed sample was opened along the greater curvature. The longer diameter (mm) of ulcers formed was measured with a slide caliper, and the sum was taken as an ulcer index. Each of test compounds shown in Table 1 below was suspended in a 0.5% carboxymethylcellulose (CMC) solution and administered to the rat (test group) at a dose level of 30 mg/5 ml/kg-b.w. 1 hour before imposition of a stress. Only a 0.5% CMC solution (5 ml) was administered to a control group. A percent inhibition of ulceration was obtained from equation: [formula]

Toxicity (oral LD50) = conditions: in vivo, orally administering, species not given
Text: The compounds of the present invention are of low toxicity.

Ethanol-Induced Ulcer = assay: Ethanol-Induced Ulcer; format: in vivo, Donryu male rat; conditions: orally, 30 mg/5 ml/kg-b.w. in 0.5% CMC, one hour before 5 ml/kg-b.w. of 100% ethanol
Description: 2) Ethanol-Induced Ulcer:
A Donryu male rat having been deprived of food for 48 hours and of water for 24 hours orally received 5 ml/kg-b.w. of 100% ethanol. One hour later, the rat was sacrificed in the same manner as described in (1) above, the stomach removed and treated in the same manner as above. The test compound (the compound of Example 2) was suspended in a 0.5% CMC solution and orally administered to the rat at a dose of 30 mg/5 ml/kg-b.w. one hour before administration of ethanol.

5(6)-(2-Acetylamino-2-ethoxycarbonyl)ethyl-l-[2-(2,2,6,6-tetramethylpiperidin-1-yl)]ethyl-2-[2-(2,2,6,6-tetramethylpiperidin-1-yl)ethylthio]benzimidazole [Example 12]
Percent Inhibition on Ulceration [1]: 87%

COc1ccc2nc(SCCN3C(C)(C)CCCC3(C)C)[nH]c2c1 [Example 1, 5-Methoxy-2-[2-(2,2,6,6-tetramethylpiperidin-1-yl)ethylthio]benzimidazole]
LD50 (Toxicity (oral LD50)): > 1000 mg/kg
inhibition in vivo at 30 mg/kg [1]: 92%

CCOC(=O)C(Cc1ccc2[nH]c(SCCN3C(C)(C)CCCC3(C)C)nc2c1)NC(=O)c1ccc(Cl)cc1 (stereo not shown) [Example 2]
inhibition on erosion (Ethanol-Induced Ulcer): 80%
LD50 (Toxicity (oral LD50)): > 1000 mg/kg
inhibition in vivo at 30 mg/kg [1]: 97%

CC1(C)CCCC(C)(C)N1CCSc1nc2cc(CC(NC(=O)c3ccc(Cl)cc3)C(N)=O)ccc2[nH]1 (stereo not shown) [Example 3, 5-[2-Carbamoyl-2-(p-chlorobenzoyl)amino]ethyl-2-[2-(2,2,6,6-tetramethylpiperidin-1-yl)ethylthio]benzimidazole]
inhibition in vivo at 30 mg/kg [1]: 62%

CC1(C)CCCC(C)(C)N1CCSc1nc2cc(CC(NC(=O)c3ccc(Cl)cc3)C(=O)O)ccc2[nH]1 (stereo not shown) [Example 4, 5-[2-Carboxy-2-(p-chlorobenzoyl)amino]ethyl-2-[2-(2,2,6,6-tetramethylpiperidin-1-yl)ethylthio]benzimidazole]
inhibition in vivo at 30 mg/kg [1]: 40%

CCOC(=O)C(Cc1ccc2[nH]c(SCCN3C(C)(C)CCCC3(C)C)nc2c1)NC(C)=O (stereo not shown) [Example 5, 5-[2-Acetylamino-2-ethoxycarbonyl)ethyl-2-[2-(2,2,6,6-tetramethylpiperidin-1-yl)ethylthio]benzimidazole]
LD50 (Toxicity (oral LD50)): > 1000 mg/kg
inhibition in vivo at 30 mg/kg [1]: 97%

Cc1ccc2nc(SCCN3C(C)(C)CCCC3(C)C)[nH]c2c1 [Example 6, 5-Methyl-2-[2-(2,2,6,6-tetramethylpiperidin-1-yl)ethylthio]benzimidazole]
inhibition in vivo at 30 mg/kg [1]: 95%

CC1(C)CCCC(C)(C)N1CCSc1nc2cc(CO)ccc2[nH]1 [Example 7]
inhibition in vivo at 30 mg/kg [1]: 97%

COC(=O)c1ccc2[nH]c(SCCN3C(C)(C)CCCC3(C)C)nc2c1 [Example 8]
inhibition in vivo at 30 mg/kg [1]: 98%

CC1(C)CCCC(C)(C)N1CCSc1nc2ccccc2[nH]1 [Example 9]
inhibition in vivo at 30 mg/kg [1]: 97%

Cn1c(SCCN2C(C)(C)CCCC2(C)C)nc2ccccc21 [Example 10]
inhibition in vivo at 30 mg/kg [1]: 100%

CC1(C)CCCC(C)(C)N1CCSc1nc2ccccc2n1Cc1ccccc1 [Example 11]
inhibition in vivo at 30 mg/kg [1]: 95%
